Test results: publication PMC8282797, “Strictly regulated agonist-dependent activation of AMPA-R is the key characteristic of TAK-653 for robust synaptic responses and cognitive improvement” (Scientific Reports, 2021)
“Also recorded” adds a separate entry of the source.

Test system: cynomolgus monkeys
Assay: Delayed match-to-sample (DMTS) task
Assay type: in vivo, cynomolgus monkey (Macaca fascicularis)
Conditions: 0.06 mg/kg, p.o., 6 h prior to testing
Experimental: DMTS tasks were performed using 4–6 years old male cynomolgus monkeys (Macaca fascicularis) weighing 4–6 kg as previously described, using a Cambridge Neuropsychological Test Automated Battery (CANTAB) system (CeNes, Cambridge, UK). Monkeys were maintained at 80% of free-feeding body weight throughout the experiment. Details are described in the Supplementary Information.
The experiment was performed using 4-6 years old male cynomolgus monkeys (Macaca fascicularis) weighing 4-6 kg. Monkeys were maintained at 80% of free-feeding body weight throughout the experiment. Four monkeys were trained to perform DMTS task using a Cambridge Neuropsychological Test Automated Battery (CANTAB) system (CeNes, Cambridge, UK) (Weed et al., 1999). Briefly, a trial was initiated by presentation of an image of a sample object on the screen. The monkey had to touch this object on the screen within 30 s. Then, the sample object was diminished from the screen, and a variable delay (0, 4, 8, and 16 s) was ensured. After the delay, the sample object was re-presented together with three other objects. The monkey had to choose the sample object from the four objects and a collect choice was reinforced by the food reward. The ITI was 5 s and one session consisted of 96 trials (24 trials of each delay of 0, 4, 8, and 16 s). […] The correct responses were recorded for all trials during test sessions. […]

Compound: CC1=CN2CCS(=O)(=O)N=C2C(c2ccc(OC3CCCCC3)cc2)=N1 [TAK-653, 9-[4-(Cyclohexyloxy)phenyl]-7-methyl-3,4-dihydropyrazino[2,1-c][1,2,4]thiadiazine 2,2-dioxide]
- DMTS accuracy at 16-s delay interval: significantly ameliorated; also recorded: significantly increased
